# Results reported in US20040209273A1, “Plant stress-regulated genes” (priority 2001, published 2004).
# Key:
# tobacco leaf discs = test: Ion leakage (solute conductance) from tobacco leaf discs floated on methyl viologen solutions; parameters: species or system Nicotiana tabacum
# Protocol: Nicotiana tabacum cv. Petit Havana SR1 plants were grown in a controlled environment chamber (Weiss Technik, Lindenstruth, DE) under 100 μmol/m^2/s light intensity (photosynthetically active radiation), 16 hours light/8 hours dark regime, relative humidity of 70% and constant temperature of 24° C. The most expanded leaves (11-12 cm long×7-8 cm wide) from five week old plants were used for experiments with methyl viologen.
# Leaf discs (1 cm in diameter) were punched with a cork-bore from the interveinal part of the leaf. Three leaf discs, each originating from different plants, were floated with the abaxial side up on 12 ml of methyl viologen solution in nanopure water or water solely in the case of control. Treatments were performed in controlled environment chambers, under the same conditions as for growth, except as otherwise indicated. Leaf discs for RNA extraction were drained on paper, rapidly frozen in liquid nitrogen and stored at −70° C. Ion leakage from the leaf discs was measured as conductivity of the solution using a conductivity meter (Consort, Turnhout, BE)
# As a first step in studying adaptive responses to oxidative stress in tobacco, we wanted to establish an experimental system in which low doses of oxidant would induce adaptation to higher doses of the same compound. MV, a redox-active compound that enhances superoxide radical (O2 ? ) formation mainly in chloroplasts, was used as an oxidant. In order to determine MV concentrations suited for the induction of adaptation and for the subsequent oxidative stress treatment, sensitivity of tobacco to MV was first determined. Leaf discs were floated on solutions with different concentrations of MV and ion leakage was monitored by measuring the solute conductance. If not scavenged, superoxide generated by MV is converted through redox-reactions into other active oxygen species (AOS) such as hydroxyl radicals that interact with biological molecules and cause oxidative damage (Halliwell and Gutteridge, 1989). Peroxidation of membrane lipids results in loss of membrane integrity that is reflected by enhanced cellular ion leakage. […] These concentrations thus seemed most suitable for inducing adaptation to MV.
# To test whether exposure to sublethal amounts of MV enhances tolerance to higher, normally toxic amounts of this compound, tobacco leaf discs were floated on solutions with less than 0.2 μM MV and subsequently transferred to solutions within the molar range of 0.2-2 μM. Increase in tolerance was assessed by measuring the solute conductance. Leaf discs pretreated with water were taken as nonadapted controls. […]
# [1] = system: Gpx, SodCc and differential-display genes (mRNA); test: Northern analysis of gene expression in leaf discs during MV pretreatment and treatment; parameters: species or system Nicotiana tabacum
# Protocol: Total RNA was extracted from frozen leaf discs using TRIzol™ Reagent (Life Technologies, Paisley, UK) according to the manufacturer's instructions. RNA samples were treated prior to electrophoresis and resolved on 1% agarose gel as described by Shaul et al. (1996). The RNA was blotted on nylon membrane (Hybond-N, Amersham International plc., Buckinghamshire, UK or Qiabrane, Qiagen GmbH, Hilden, DE) by capillary blotting (Maniatis et al., 1982). RNA was fixed to the membrane by cross-linking at 150 mJ/cm^2. To check the quality of RNA prior to hybridization, membranes were incubated for 15 minutes in 5% acetic acid and stained for five minutes in 0.04% methylene blue in 0.5 M sodium acetate (pH 5.2), and rinsed with water. After the staining and quality check, membranes were destained in 0.1×SSC (Maniatis et al., 1982) containing 0.5% SDS (w/v). Membranes were hybridized at 65° C. in 50% formamide, 5×SSC, 0.5% SDS and 10% dextran sulphate. ^32P-labeled RNA probes corresponding to the cDNA fragments of GPx (Criqui et al., 1992), SodCc (PSOD 3-5′ fragment; Tsang et al., 1991), SodB (pSOD 2-5′ fragment; Tsang et al., 1991), Cat1 (pCat1A; Willekens et al., 1994), and N. tabacum actin (pRVA12; Aventis Crop Science, BE) were generated by the Riboprobe® System (Promega Corp., Madison, Wis., USA). RNA probes corresponding to cDNA fragments isolated by differential display and cloned into pGEM®-T vector (Promega Corp., Madison, Wis., USA) were generated according to the same protocol. Membranes were washed at 65° C. for 15 minutes each in 3×SSC (Maniatis et al., 1982), 1×SSC and 0.1×SSC (stringent washing) containing 0.5% SDS (w/v). Membranes were exposed to the Storage Phosphor Screen and scanned with the Phosphorlmager 445 SI (Molecular Dynamics Inc., Sunnyvale, Calif., USA). Membranes were reused after stripping of the probe in 0.1×SSC at 85° C. Removal of the probe was checked by autoradiography.
# mRNA levels of several antioxidant genes were tested by Northern analysis during the pretreatment and the treatment. […]
# tobacco leaf disc mRNA = test: Differential mRNA display of MV-pretreated versus water-pretreated leaf discs; parameters: species or system Nicotiana tabacum; details: 0.1 μM MV for 17 hours; estimated from sequencing data
# Protocol: Total RNA was treated with DNaseI prior to RT-PCR according to the manufacturer's instructions (Life Technologies, Paisley, UK). Alternatively, up to 20 μg of total RNA was incubated with 5 U DNaseI, 18 U Recombinant Ribonuclease Inhibitor (Promega Corp., Madison, Wis., USA), 1 mM DTT in 80 μl of 10 mM Tris-Cl, pH 8.3, 50 mMKCl and 1.5 mM MgCl2 for 30 minutes at 37° C. RNA was extracted with phenol/CHCl3 (3:1), ethanol precipitated and dissolved in diethyl pyrocarbonate-treated water. mRNA differential display was performed with the RNA map™ kit (Gene Hunter Corp., Nashville, Tenn., USA), AmliTaq DNA polymerase (Perkin-Elmer, Branchburg, N.J., USA) and [^33P] dATP (0.2 μl/20 μl PCR reaction of 111 000 GBq/mmol; Isotopchim, Ganagobie-Peyruis, FR). 3.5 μl of each PCR reaction was mixed with 2 μl of loading dye and denatured at 95° C. for five minutes prior to loading onto 6% DNA sequencing gel. […]
# In order to identify which genes other than those encoding antioxidant enzymes would show altered mRNA levels during oxidative stress adaptation, reference samples placed in water for 17 hours, or samples pretreated with 0.1 μM MV for 17 hours (adapted leaf discs), were compared by differential mRNA display. […] Expression of 16 genes was further analyzed by Northern analysis with RNA from an independent experiment. […]
# A. thaliana plants = test: Growth of Arabidopsis seedlings on plates containing methyl viologen; format: in vivo, Arabidopsis thaliana; details: 2 μM MV in ½ MS, 1% sucrose; three to four weeks; transformed lines and C24 control
# Protocol: Eighty plants of an F2-progeny of the transgenic line WV4 (construct pWRKY-VP16-pGSJ780A) were grown on MS+Kanamycine for two and a half weeks. Fifteen kanamycine-resistant seedlings were transferred to plates containing ½ MS, 1% sucrose and 2 μM methyl viologen (paraquat) or to plates containing ½ MS, 1% sucrose for the controls.
# Wild-type Arabidopsis plants were treated in a similar way (except for selection on Kanamycine).
# Performance of plants was followed and pictures were taken after approximately three weeks.
# Segregating populations (F2) of A. thaliana plants (C 24) transformed with WRKY11 under control of the 35S promoter (35S—WRKY11) or with WRKY11 fused to the VP16 activation domain under control of the 35S promoter (35S—WRKY11-VP16) were grown on MS media with kanamycine. Approximately three-week-old seedlings resistant to kanamycine from 3:1 segregating lines (WV4 and WV9 WRKY11-VP16 transformed lines) were transferred to the solid media containing ½ MS salts, 1% sucrose and 2 μM methyl viologen (MV) or on plates without MV. As control plants, untransformed A. thaliana plants were used (C24). After three to four weeks, phenotypic differences were assessed.
compound,measurement,setting,value
"C[n+]1ccc(-c2cc[n+](C)cc2)cc1 [MV, methyl viologen]",leaf damage measured as solute conductance versus applied dose,tobacco leaf discs; 0.2-2 μM MV,clearly correlated with the applied dose of MV
same,visible damage of leaf discs,"tobacco leaf discs; concentrations lower than 0.2 μM MV, after 42 hours of incubation",no visible damage
same,increase in ion leakage from the leaf discs in comparison with water-treated controls,"tobacco leaf discs; concentrations lower than 0.2 μM MV, up to 42 hours of incubation",very little increase in ion leakage
same,protection against MV compared to water-pretreated control samples (solute conductance),"tobacco leaf discs; pretreated with 0.1 μM MV for 17 hours, then treated with 1 μM MV for 11 hours, mean",40%
same,expression of all Table 2 genes except DIOX,[1]; after 12 hours of the pretreatment with 0.1 μM MV,induced
same,expression of all Table 2 genes except DIOX,"[1]; during the treatment with 1 μM MV, induction started within the first three hours",further induced
same,Gpx and SodCc mRNA level,[1]; pretreatment with 0.1 μM MV,persistent increase
same,total number of genes with altered expression after MV pretreatment,tobacco leaf disc mRNA,~170
same,growth of plants on plates containing MV,A. thaliana plants,retarded
